# US20230293530A1, “AGENTS FOR SENSITIZING SOLID TUMORS TO TREATMENT” (Yeda Research and Development Co. Ltd., priority 2020, published 2023)
# How the values were obtained:
# [1] = tested on: LMP-7 immunoproteasome; experiment: Western blot for LMP-7 immunoproteasome in 4T1 cells; format: cell-based, murine; conditions: 300 µM mizoribine, 24 hours
# From the text: C) ASS1 mRNA expression levels and NDNO scores are associated with non-response to anti-PD1 therapy in non-small cell lung cancer (NSCLC) (7 responders and 14 nonresponders). D) Proteomic-based NDNO scores associate with lower hydrophobicity of peptide repertoire (Wilcoxon ranksum P<0.05) in a (CPTAC3) lung adenocarcinoma cohort. NDNO scores were used to determine the top tertile (red; n=36) and bottom tertile (blue; n=36); Proteomic NDNO scores denote the ratio of NNDO scores of the tumor vs the matched normal sample (Methods). Hydrophobicity scores were determined by R library Peptides using the metric from Janin et al^2, where the hydrophobicity of each sample’s peptide repertoire denotes the mean hydrophobicity of all its peptides (Methods). E) 4T1 breast cancer cells were treated with 300 µM mizoribine for 24 hours and analysed by western for LMP-7 immunoproteasome (Left panel). Quantification of the western is shown on the right panel. […] Tumor size was calliper-measured on the designated days (upper panel) and at sacrifice on day 14 (lower panel, p = 0.0476 using student’s t-test). […] Human IFNγ was measured using ELISA in wells containing cultured CD8+T-cells and PDX explants from two patients (Pat#1, LEP 19 and Pat#2, LEP 20) with metastatic NSCLC on responsive to anti-PD1. […]
# [2] = tested on: 4T1 breast cancer cells; experiment: DNA (whole-exome) sequencing analysis of mutational bias; format: cell-based, murine; conditions: 4T1 cells, 300 µM mizoribine, 24 h
# Method: B) The purine/pyrimidine ratio is increased upon glucose deprivation in murine breast cancer cells. 4T1 cells were grown in the absence of glucose for 24h (baseline) and 48h and quantified by liquid chromatography-mass spectrometry (LC-MS). Nucleotide levels were measured in µg/ml and corrected for protein concentration. Purine/pyrimidine ratio was calculated by dividing (AMP+GMP) by (UMP+CMP) relative concentrations. C) ASS1 inhibition decreases the purine/pyrimidine ration under glucose deprivation. 4T1 cells were grown in the presence or absence of glucose for 48 h and analysed as in 1B. […] Cells were grown and treated as in 5B. […] 4T1 cells were grown either with or without 300 µM mizoribine for 24 h. Nucleotide levels were measured by LC-MS. […] Each experiment was conducted with biological and technical replicates and repeated at least three times. […] Nucleotide levels were measured as described below by LC-MS. Purine/pyrimidine ratio was calculated by dividing (AMP+GMP+ATP+GTP) concentration by (UMP+CMP+TMP+UTP+CTP+TTP) concentration before and after methotrexate. […]
# 4T1 cells treated as outlined above were followed by lysis and DNA isolation using DNeasy blood and tissue kit (Quiagen). […] Purine to pyrimidine (R>Y) and pyrimidine to purine (Y>R) mutations on the sense strand were counted and pooled per condition to achieve sufficient values for statistical analysis. […]
smiles,measurement,setting,value
"NC(=O)c1ncn([C@@H]2O[C@H](CO)[C@@H](O)[C@H]2O)c1O [Mizoribine, mizoribine]",immunoproteasome LMP-7 expression,[1],higher immunoproteasome LMP-7 expression
same,mutational bias by DNA sequencing analysis,[2],pyrimidine mutational bias
